Results: ChEMBL document CHEMBL1143025, “Synthesis of carbamate derivatives of iejimalides. Retention of normal antiproliferative activity and localization of binding in cancer cells” (2007)
Calls of active or inactive are those of the source. The calls are words filed in the database; no cut-off is given here.

What was measured:
PC-3 [1] = assay: Disruption of microtubules in human PC3 cells at 100 nM after 12 hrs; assay type: functional, cell-based
PC-3 [2] = assay: Antiproliferative activity against human PC3 cells after 72 hrs by MTT assay; assay type: functional; details: PC-3, 72 h
SK-BR-3 = assay: Antiproliferative activity against human SKBr3 cells after 72 hrs by MTT assay; assay type: functional; details: SK-BR-3, 72 h
[3] = Antiproliferative activity against human MDA231 cells after 72 hrs by MTT assay; assay type: functional; details: MDA-MB-231, 72 h
MCF7 = assay: Antiproliferative activity against human MCF7 cells after 72 hrs by MTT assay; assay type: functional; details: MCF7, 72 h

CC(=O)O[C@H]1C(=O)[C@@]2(C)[C@H]([C@H](OC(=O)c3ccccc3)[C@]3(O)C[C@H](OC(=O)[C@H](O)[C@@H](NC(=O)c4ccccc4)c4ccccc4)C(C)=C1C3(C)C)[C@]1(OC(C)=O)CO[C@@H]1C[C@@H]2O
Activity (PC-3 [1]): Active

CO[C@@H]1/C=C(C)/C=C/[C@@H](C)/C=C/C(=O)O[C@H](/C(C)=C/C=C(\C)CNC(=O)[C@H](COC(=O)Nc2ccccc2)NC=O)[C@@H](C)/C=C/C=C/[C@@H](OC)CC/C=C(C)\C=C\C1
GI50 (PC-3 [2]): 15.3 nM | GI50 (SK-BR-3): 20 nM | GI50 [3]: 12 nM | GI50 (MCF7): 7.5 nM

CO[C@@H]1/C=C(C)/C=C/[C@@H](C)/C=C(\C)C(=O)O[C@H](/C(C)=C/C=C(\C)CNC(=O)[C@H](COC(=O)Nc2ccccc2)NC=O)[C@@H](C)/C=C/C=C/[C@@H](OC)CC/C=C(C)\C=C\C1
GI50 (PC-3 [2]): 9.9 nM | GI50 (SK-BR-3): 10.5 nM | GI50 [3]: 8.8 nM | GI50 (MCF7): 8.3 nM
